Test results as given in US20250283800A1, “PROBES FOR FLUORESCENCE IMAGING” (The General Hospital Corporation, priority 2022, published 2025).

Experiments:
[1] = Fluorescence emission before/after photolysis at pH=8 (spectroscopic studies of photo reactions); type: physicochemical
Description: FIG. 16. Spectroscopic studies of photo reactions for different FLASH-off probes. A. Schematic depiction of the photo reactions for FLASH-off 500-650 (1a-d respectively) with the absorbance and emission spectra scans of the photo reactions (5 μM) in (citric acid+Na2HPO4 buffer, pH=8) before (red) and after (dark) irradiation 1 min 365 nm lamp. All spectra were taken in triplicates. B. Pictures of solutions of panel A in white light (top and bottom) and under UV light (middle).
Photolysis experiments. Solutions for compounds 1a-d were made in the corresponding buffers (pH=3-8) at a concentration of 1-100 μM. The samples were irradiated using different UV light sources (i) LED light source (405 nm, 1.14 mW cm^−2, LuxeonStar SZ-05-U3); UV lamp (˜365 nm, 0.32 mW cm^−2; UVL-28 EL Series, UVP) at different power and time settings (1 s-5 min). Fluorescence intensity was measured at the corresponding λmax of emission before irradiation (t=0 min) and after irradiation (t=1, 2, 3, and 5 min). The data were plotted as the integrated fluorescence intensity normalized to the initial intensity (I=1).

[2] = tested on: human FFPE tonsil sections; test: Multiplexed tissue imaging and quenching in FFPE tonsil sections
Description: FIG. 23. Quenching can be spatially controlled. A. Focused local quenching experiment (top) in tonsil tissue sections using an epifluorescent microscope. Local quenching was performed using a 40× magnification (DAPI, 8 s) and read-out was performed with 10× magnification (647 nm channel). (<90%) of fixed human tonsil stained with CD45-FLASH-off 650. Whole sample quenching (bottom) was achieved by soaking the sample with buffer at pH=8.4 and using an external 405 nm lamp placed at about 1 cm distance for 2 min. Scale bar=[…] (top), […] (bottom).
Human tissue sections. De-identified formaldehyde-fixed paraffin-embedded tissue sections were commercially obtained from Biomax (HuFOT161, Biomax). Tissue sections were de-paraffinized, rehydrated, and antigen-retrieved in pH 9antigen retrieval buffer. Then sections were blocked with Intercept Blocking buffer (LI-COR) for 30 min before antibody staining for FLASH-off FFPE. Tissues were incubated with FLASH-off antibody conjugates for 30 minutes followed by rinses. […]
We prepared four antibody-FLASH-off conjugates that recognize human immune markers including CD45, CD11c, CD11b, and Pan-CK. […] Regions of high immune cell density were localized and the location of the selected immune markers was assessed within the distinctive morphological structures of tonsils tissue. […]

Row | spirocyclization with increasing pH [1] | Compound | signal intensity of non-photoquenchable stains after UV light irradiation [2]
1 | did not proceed with increasing pH | CNC(=O)c1ccccc1Cc1c2ccc(=N)c(S(=O)(=O)O)c-2oc2c(S(=O)(=O)O)c(N)ccc12 [Compound 7a] | 
2 |  | N=C(N)c1ccc(-c2cc3ccc(C(=N)N)cc3[nH]2)cc1 [DAPI] | without causing an apparent decrease in signal intensity
